# Where two headings read alike, the source gives them in different places.
# B1: Ipomoelin (IPO) (natural protein, UniProt P93193 1-154, looked up)
# chain: MALQLAAHSDARSGPVGSNGGQFWSFRPVRPLNKIVLSFSGSPDQTLNLISITFSSNPTDIITVGGVGPEPLTYTETVNIDGDIIEISGMIANYKGYNVIRSIKFTTNKKEYGPYGANAGTPFNIKIPDGNKIVGFFGNSGWYVDAIGAYYTAK
# notes: Ipomoelin (IPO), Jacalin-related lectin of sweet potato (Ipomoea batatas cv. Tainung 57); gene GenBank D89823.1, protein GenBank BAA14024.1; monomer of residues 1 to 154; recombinant IPO with a His tag is 17.3 kDa as a monomer and 69.2 kDa as a tetramer; also called wildtype IPO; native IPO; source: E. coli BL21 (DE3), purified (Histrap FF)
# Assays:
# IPO (Ipomoelin) = target: T1, IPO (Ipomoelin) (Ipomoea batatas, UniProt P93193); assay: isothermal titration calorimetry, one-site fit; type: binding; settings: for Kd: read-out: K A(10^3 M^-1) (converted)
# T1 construct: full length (residues 1-154), His-tagged, expressed in E. coli BL21(DE3) from pTZ18UH-IPO
# T1 sequence (P93193 1-154): B1 chain
# ΔN10IPO = target: T2, ΔN10IPO (Ipomoea batatas, UniProt P93193); assay: isothermal titration calorimetry, one-site fit; type: binding; settings: 20 mM Tris-HCl, 150 mM NaCl pH 7.0, 25 °C; n fixed at 1.0; read-out: K A(10^3 M^-1) (converted)
# T2 construct: gene IPO; N-terminal residues 1-10 removed, Histrap-purified, expressed in E. coli BL21(DE3) from pTZ18UH-ΔN10IPO
# Source text: isothermal titration calorimetry, one-site fit on ΔN10IPO
# [1] = target: the molecule itself; assay: crystal structure; hanging-drop vapor diffusion at room temperature; apo IPO and co-crystals with Me-Man, Me-Glc and Me-Gal in four space groups; tetramer in the asymmetric unit or by symmetric operations; interface analysed on IPO–Me-Glc with PDBe PISA
# [2] = 20 mM Tris-HCl, 150 mM NaCl pH 7.0, 25 °C, n fixed at 1.0
molecule,measurement,setting,value
OC[C@H]1OC(O)[C@H](O)[C@@H](O)[C@H]1O (stereo partly drawn) [Gal],KA,IPO (Ipomoelin); [2],0.57×10^2
OC[C@H]1OC(O)[C@H](O)[C@@H](O)[C@@H]1O (stereo partly drawn) [Glc],KA,IPO (Ipomoelin); [2],0.32×10^2
OC[C@H]1OC(O)[C@@H](O)[C@@H](O)[C@@H]1O (stereo partly drawn) [Man],KA,IPO (Ipomoelin); [2],1.05×10^2
"CO[C@H]1O[C@H](CO)[C@H](O)[C@H](O)[C@H]1O [Me-Gal, methyl α-D-galactopyranoside]",Kd,IPO (Ipomoelin),244 µM
"CO[C@H]1O[C@H](CO)[C@@H](O)[C@H](O)[C@H]1O [Me-Glc, methyl α-D-glucopyranoside]",Kd,ΔN10IPO,73.5 µM
same,Kd,IPO (Ipomoelin); [2],498 µM
"CO[C@H]1O[C@H](CO)[C@@H](O)[C@H](O)[C@@H]1O [Me-Man, methyl α-D-mannopyranoside]",Kd,ΔN10IPO,26.4 µM
same,Kd,IPO (Ipomoelin); [2],142 µM
B1,stoichiometry N,[1],4
